“Also recorded” adds a separate entry of the source. Like-named read-outs stand apart in the source and are kept apart here. Marks after values point to notes of the source that are not given here.
Experiments:
SERCA2a = SERCA2a (Cavia porcellus, UniProt A0A286XD73); assay: SERCA2a ATPase activity in heart-derived SR microsomes from normal guinea-pig; assay type: biochemical
Description: SERCA2a ATPase Activity in Heart-Derived SR Microsomes from Normal Quinea-Pig
SERCA2a activity was measured in vitro as ^32P-ATP hydrolysis at different Ca^2+ concentrations (100-4000 nM) in the absence and presence of the tested compounds, as described (Micheletti R. et al., Am J Card 2007, 99:24A-32A). Increasing concentrations of each compound (ranging from 1 to 200 nM) were pre-incubated with 2 μg of SERCA2a enriched microsomes for 5 min at 4° C. in 80 μl of a solution containing 100 mM KCl, 5 mM MgCl2, 1 μM A23187, 20 mM Tris, pH 7.5. […] SERCA2a-dependent activity was identified as the portion of total hydrolytic activity inhibited by 10 μM cyclopiazonic acid (Seidler N W et al., J Biol Chem. 1989, 264:17816-23).
Dose-response curves were fitted by using a sigmoidal equation and the activity at the maximal velocity (Vmax) and the Kd for Ca^2+ were calculated (Synergy Software KaleidaGraph 3.6). The effect of the compounds in normal guinea-pig preparations was expressed as % decrease of Kd Ca^2+ (implying an increase of affinity for Ca^2+) of a control sample run in the absence of compound (Table 2). […] Data are mean±SD, n=number of experiments, *at least p<0.05.

[1] = tested on: rat ventricular myocytes isolated from STZ rats; assay: SR Ca2+ uptake function in ventricular myocytes from STZ rats (loading protocol); assay type: cell-based; settings: 1 μM
Source text: (§1) The compounds were characterized for their effect on (i) SR Ca^2+ uptake function and (ii) action potential (AP) in myocytes freshly dissociated from rat and guinea-pig ventricles, respectively, by retrograde coronary perfusion with enzymatic solution (Rocchetti M et al., J Pharmacol Exper Therap 2005, 313(1):207-215).
To test the effects of the compounds in a model of diastolic dysfunction, Sprague Dawley male rats (150-175 g) were made diabetic by a single tail vein injection of streptozotocin (STZ 50 mg/kg, Sigma-Aldrich). STZ was freshly prepared in 0.1 M sodium citrate buffer at pH 4.5. Fasting glycaemia was measured after 1 week and rats with values >300 mg/dl were considered diabetic. Drug effects on SR Ca^2+ uptake function were evaluated in isolated left ventricular myocytes 9 weeks after STZ injection. Myocytes were incubated for at least 30 min in the presence of a specific drug to guarantee its cell membrane permeation. Statistical analysis was performed by a “group comparison” model.
Drug effects on SR Ca^2+ uptake rate were evaluated with a SR “loading protocol” specifically devised to rule out the contribution of the Na/Ca exchanger (NCX) and to assess the uptake rate starting at low levels of SR Ca^2+ loading. Under voltage-clamp conditions, intracellular Ca^2+ concentration was dynamically measured by epifluorescence (Fluo4-AM). Membrane current, whose time-dependent component mainly reflected ICaL, was simultaneously recorded. The SR loading protocol consisted in emptying the SR by a brief caffeine pulse and then progressively refilling it by voltage steps activating Ca^2+ influx through the sarcolemmal Ca^2+ channel (ICaL). NCX was blocked by omission of Na^+ from intracellular and extracellular solutions. The procedure is in agreement with published methods, with minor modifications (Rocchetti M et al., J Pharmacol Exper Therap 2005, 313:207-215).
Drug effects on SR Ca^2+ uptake were analyzed by considering multiple parameters: the rate at which 1) Ca^2+ transient (CaT) amplitude and 2) the Ca^2+ induced Ca^2+ release (CICR) gain increased during the loading protocol, reflecting the rate at which the SR refilled and the gain of the system, 3) the time constant of cytosolic Ca^2+ decay (τdecay) within each pulse, reflecting net Ca^2+ transport rate (by SERCA2a) across the SR membrane (a decrease in τdecay corresponds to enhanced SR Ca^2+ uptake).

[2] = tested on: guinea-pig ventricular myocytes; assay: Action potential measurements in guinea-pig ventricular myocytes; assay type: cell-based; settings: 1 μM; for action potential duration (APD90) / diastolic membrane potential (Ediast) / maximum depolarization velocity (dV/dtmax) / rate-dependency of each AP parameter: 0.5-1-2-4 Hz; for slope of linear fit STV vs mean APD90: all pacing rates pooled; for short term APD variability (STV) and its dependency on mean APD: pacing rates 0.5-1-2 and 4 Hz
Description: as §1
Cvie216 and Cvie214 effects on action potential parameters were evaluated at the concentration of 1 μM modulating SERCA2a in guinea-pig myocytes. The action potential (AP) contour provides a first-line estimate of the integrated function of membrane ion channels, and its changes may disclose ancillary actions—potentially resulting in untoward effects of the compound. To increase sensitivity of the AP contour as a reporter, effects on the rate-dependency of AP parameters were also tested, thus providing a multiparametric (more stringent) approach. AP were recorded in guinea-pig ventricular myocytes because the AP contour reproduces the human AP. […] Statistical analysis was performed by a “group comparison” model.
APs were recorded in normal Tyrode's solution at 36.5° C. in guinea-pig ventricular myocytes. The following parameters were measured at 4 stimulation rates (0.5-1-2-4 Hz): diastolic membrane potential (Ediast), maximum depolarization velocity (dV/dtmax), action potential duration (APD at 90% of repolarization). Short term APD variability (STV) during steady-state pacing, an index of repolarization stability, was measured as the sum of absolute orthogonal deviations from the identity line in the APDnfAPDn+1 plot (Poincare plot) (Altomare C et al., Circulation A&E 2015, 8:1265-1275).

[3] = target: dog renal Na^+/K^+ ATPase (Canis lupus familiaris (Dog) (Canis familiaris), UniProt P50997); assay: biochemical; settings: IC50 inhibition of dog renal Na+/K+ ATPase, purified dog kidney enzyme;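 further: enzyme preincubated with inhibitor 10 min at 37 °C, then K^+ and ^32P-ATP added for 15 min, released ^32P counted, activity relative to untreated control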
Source text: Inhibition of Dog Renal Na^+/K^+ ATPase Activity
The compounds were thus tested for their inhibitory effect on the canine renal Na^+/K^+ ATPase enzyme.
Kidneys were excised from 1-3 year-old male beagle dogs (WuXi AppTec, Suzhou Co., Ltd. 1318 Wuzhong Ave., Wuzhong District Suzhou, 215104 P.R. China) under pentobarbital anesthesia (Import Authorization from Italian Health Ministry 0009171-09/04/2015-DGSAF-COD_UO-P, 2015). Kidneys were sliced and the outer medulla was dissected and suspended (1 g/10 ml) in a sucrose-histidine solution containing 250 mM sucrose, 30 mM histidine, and 5 mM EDTA, pH 7.2. The tissue was homogenized by using an Ultra Turrax homogenizer. The sample was centrifuged at 6,000 g for 15 min. Next, the supernatant was decanted and centrifuged at 48,000 g for 30 min. The pellet was suspended in the sucrose-histidine buffer and incubated for 20 min with a sodium-dodecyl-sulphate (SDS) solution dissolved in a gradient buffer containing 25 mM imidazole and 1 mM EDTA, pH 7.5. The sample was layered on the top of a sucrose discontinuous gradient (10, 15, and 29.4%) and centrifuged at 60,000 g for 115 min. The pellet was suspended in the gradient buffer.
Increasing concentrations of the standard ouabain, or tested compound, were incubated with 0.3 μg of purified dog kidney enzyme for 10 min at 37° C. in 120 μl final volume of a medium containing 140 mM NaCl, 3 mM MgCl2, 50 mM Hepes-Tris, 3 mM ATP, pH 7.5. Then, 10 μl of a solution containing 10 mM KCl and 20 nCi of ^32P-ATP (3-10 Ci/mmol, Perkin Elmer) were added. The reaction was allowed to continue for 15 min at 37° C. and then stopped by acidification with 20% v/v ice-cold perchloric acid. ^32P was separated by centrifugation with activated Charcoal (Norit A, Serva) and the radioactivity was counted. The inhibitory activity was expressed as percent of the control samples carried out in the absence of ouabain, or tested compound.

STZ diabetic rats = assay: Haemodynamics in streptozotocin diabetic rats (echocardiography); assay type: in vivo, rat; settings: after 15 min IV infusion 0.2 mg/kg/min
Description: CVie214 and CVie216 were tested in a diabetic rat model. Briefly, rats were injected with streptozotocin (STZ). After 7-9 weeks from STZ injection, rats were submitted to transthoracic echocardiographic and Doppler evaluation performed under urethane anesthesia. Two-dimensionally guided M-mode recordings were used to obtain short-axis measurements of left ventricular end-diastolic diameter (LVEDD), left ventricular end-systolic diameter (LVESD), posterior (PW) and septal (SW) diastolic wall thickness according to the American Society of Echocardiography guidelines (Lang R M et al., Eur J Echocardiography 2006, 7:79-108). Fractional shortening was calculated as FS=(LVEDD−LVESD)/LVEDD. Relative wall thickness was calculated as PWTd+IVSTd/LVEDD. Mitral inflow was measured by pulsed Doppler at the tips of mitral leaflets from an apical 4-chamber view to obtain early and late filling velocities (E, A) and deceleration time of early filling velocity (DT). The deceleration slope was calculated as E/DT ratio. The mitral deceleration index was calculated as DT/E ratio. Tissue Doppler Imaging (TDI) was evaluated from the apical 4-chamber view to record septal mitral annular movements, i.e., peak myocardial systolic (s′) and early and late diastolic velocity (e′ and a′).
After baseline hemodynamic measurements were taken, the rats were administered Digoxin, CVie214, CVie216 and compared to control. Digoxin, used as reference drug, was intravenously infused at 0.11 mg/kg/min for 15 min and echocardiographic parameters measured after 1 h. CVie214-salt and CVie216-salt were intravenously infused in STZ diabetic rats at 0.2 mg/kg/min and echocardiographic parameters were measured after 15 min and 30 min.
Tables 4-6 show the haemodynamic parameters in STZ diabetic rats for Digoxin, CVie214-salt, and Cvie216-salt.

[4] = Acute toxicity in the mouse; settings: Albino Swiss CD-1, in vivo
Description: The acute toxicity of the tested compound CVie214-salt and CVie216-salt have been determined in the mouse (Albino Swiss CD-1, body weight 30 g). Compounds have been orally administered or intravenously injected at increasing doses to identify the dose causing 50% mortality. Mortality occurred within 30 min after the administration and survival after 24 h.
As comparison, the acute toxicity for the reference compounds Digoxin and Istaroxime were also included. Digoxin refers to literature data (www.lookchem.com, Reference for Digoxin intravenous: Afifi A M, Ammar E M. Pharmacological Research Communications. Vol. 6, Pg. 417, 1974; Reference for Digoxin oral: Archives Internationales de Pharmacodynamie et de Therapie. Vol. 153, Pg. 436, 1965) (Table 3).

[5] = read-out: Kd Ca2+ (nM) mean ± SD, compound 1 nM
[6] = read-out: Kd Ca2+ (nM) mean ± SD, compound 10 nM
[7] = read-out: Kd Ca2+ (nM) mean ± SD, compound 100 nM
[8] = read-out: Kd Ca2+ (nM) mean ± SD, compound 200 nM
[9] = compound 10 nM, read-out: Kd Ca2+ (nM) mean ± SD
[10] = compound 100 nM, read-out: Kd Ca2+ (nM) mean ± SD
[11] = compound 200 nM, read-out: Kd Ca2+ (nM) mean ± SD
[12] = compound 1 nM, read-out: Kd Ca2+ (nM) mean ± SD

SERCA2a, sequence (A0A286XD73 1-997): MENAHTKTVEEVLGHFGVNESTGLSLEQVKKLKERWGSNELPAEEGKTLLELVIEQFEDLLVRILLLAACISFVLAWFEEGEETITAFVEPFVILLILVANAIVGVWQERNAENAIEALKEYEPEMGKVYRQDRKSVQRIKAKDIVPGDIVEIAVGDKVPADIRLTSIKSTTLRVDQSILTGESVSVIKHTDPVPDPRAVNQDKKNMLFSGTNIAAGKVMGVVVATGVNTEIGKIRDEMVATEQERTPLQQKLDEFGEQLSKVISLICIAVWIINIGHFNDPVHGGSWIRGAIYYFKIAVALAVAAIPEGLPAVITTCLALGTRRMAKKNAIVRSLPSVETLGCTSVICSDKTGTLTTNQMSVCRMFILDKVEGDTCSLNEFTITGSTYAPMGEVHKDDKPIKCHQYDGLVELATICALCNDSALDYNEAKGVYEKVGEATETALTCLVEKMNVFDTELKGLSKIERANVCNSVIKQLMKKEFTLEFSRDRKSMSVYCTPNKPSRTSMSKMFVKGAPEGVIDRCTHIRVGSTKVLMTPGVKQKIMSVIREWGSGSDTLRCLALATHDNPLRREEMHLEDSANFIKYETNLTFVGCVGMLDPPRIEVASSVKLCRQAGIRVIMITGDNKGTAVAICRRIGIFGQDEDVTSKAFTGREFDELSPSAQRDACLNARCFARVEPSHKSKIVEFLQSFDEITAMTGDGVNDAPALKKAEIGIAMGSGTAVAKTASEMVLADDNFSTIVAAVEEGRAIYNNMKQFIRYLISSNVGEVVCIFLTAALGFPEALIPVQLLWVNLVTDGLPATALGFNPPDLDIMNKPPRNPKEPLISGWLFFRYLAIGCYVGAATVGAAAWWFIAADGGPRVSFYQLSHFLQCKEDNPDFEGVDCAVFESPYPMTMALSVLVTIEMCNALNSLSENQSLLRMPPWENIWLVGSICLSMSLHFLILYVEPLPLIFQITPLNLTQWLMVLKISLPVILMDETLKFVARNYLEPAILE

Row | Structure (SMILES) | Kd (SERCA2a; [6]) [nM] | Kd (SERCA2a; [7]) [nM] | Kd (SERCA2a; [8]) [nM] | IC50 [3] [µM] | % change in Ca2+ Kd vs control (negative = decrease) (SERCA2a; compound 100 nM) | % change in Ca2+ Kd vs control (negative = decrease) (SERCA2a; compound 200 nM) [%*] | % change in Ca2+ Kd vs control (negative = decrease) (SERCA2a; compound 10 nM) | Kd (SERCA2a; [9]) [nM] | Kd (SERCA2a; [10]) [nM] | also measured
1 | C[C@]12CC[C@H](CC(=O)O)CC1C(O)CC1C2CC[C@]2(C)C(=O)CCC12 (stereo in doubt) [CVie216, 2-(6beta-hydroxy-17-oxoandrostane-3-yl) acetic acid] | 465 ± 73.4 | 443 ± 85.1 | 463 ± 76.3 | > 100 | – | – | – | – | – | Kd (SERCA2a; [5]): 529 ± 75.8 nM; Ca2+ transient (CaT) amplitude / rate of CaT increment during SR reloading [1]: statistically significant; also recorded: increased; Ca2+ uptake by the SR [1]: significantly increased; Ca2+-induced Ca2+ release (CICR) gain [1]: increase; time constant of Ca2+ decay (τdecay) [1]: reduction; action potential duration (APD90) [2]: did not affect; diastolic membrane potential (Ediast) [2]: did not affect; maximum depolarization velocity (dV/dtmax) [2]: did not affect; rate-dependency of each AP parameter [2]: did not affect; slope of linear fit STV vs mean APD90 [2]: 0.009; short term APD variability (STV) and its dependency on mean APD [2]: not significantly affected
2 | C[C@]12CC[C@H](CCC3CCNCC3)CC1[C@@H](CO)[C@@H](O)[C@@H]1[C@@H]2CC[C@]2(C)C(=O)CC[C@@H]12 (stereo partly drawn) [CVie412, 3beta-[2-(piperidin-4-yl)ethyl]-6alpha-hydroxymethyl-7alpha-hydroxyandrostane-17-one] | – | 363 ± 74.1 | 361 ± 76.3 | 3 | −19.1% | −19.6 | – | – | – | –
3 | C[C@]12CC/C(=C\CCC(=O)O)CC1[C@H](O)C[C@@H]1[C@@H]2CC[C@]2(C)C(=O)CC[C@@H]12 (stereo partly drawn) [CVie203, (E)-4-(6beta-hydroxy-17-oxoandrostane-3-yliden)butyric acid] | – | – | – | > 100 | −15%* | −14 | −8% | 418 ± 36.5 | 386 ± 33.3 | Kd (SERCA2a; [11]): 393 ± 31.3 nM
4 | C[C@]12CC[C@H](CCCC(=O)O)CC1[C@@H](O)CC1C2CC[C@]2(C)C(=O)CCC12 (stereo partly drawn) [CVie214, 4-(6alpha-hydroxy-17-oxoandrostane-3-yl) butyric acid] | 467 ± 62.4 | 427 ± 48.9 | 409 ± 60.1 | > 100 | – | – | – | – | – | Kd (SERCA2a; [5]): 474 ± 40.4 nM; Ca2+ transient (CaT) amplitude / rate of CaT increment during SR reloading [1]: failed to significantly increase; Ca2+ uptake by the SR [1]: significantly increased; Ca2+-induced Ca2+ release (CICR) gain [1]: affected by the drug as expected from SERCA2a enhancement; time constant of Ca2+ decay (τdecay) [1]: close to significance; also recorded: affected by the drug as expected from SERCA2a enhancement; action potential duration (APD90) [2]: did not affect; diastolic membrane potential (Ediast) [2]: did not affect; maximum depolarization velocity (dV/dtmax) [2]: did not affect; rate-dependency of each AP parameter [2]: did not affect; slope of linear fit STV vs mean APD90 [2]: 0.014; short term APD variability (STV) and its dependency on mean APD [2]: not significantly affected; HR heart rate (STZ diabetic rats): modestly, but significantly, increased; s′ TDI contraction velocity (STZ diabetic rats): modestly, but significantly, increased
5 | CCOC(=O)C[C@H]1CC[C@]2(C)C3CC[C@]4(C)C(=O)CCC4C3C[C@H](O)C2C1 (stereo partly drawn) [CVie213, Ethyl (6alpha-hydroxy-17-ketoandrostane-3beta-yl) acetate] | – | – | – | > 100 | −23%* | −17 | −12% | 432 ± 129 | 378 ± 114 | Kd (SERCA2a; [11]): 407 ± 124 nM
6 | C[C@]12CC[C@H](CCCC(=O)O)CC1[C@H](O)C[C@@H]1[C@@H]2CC[C@]2(C)C(=O)CC[C@@H]12 (stereo partly drawn) [CVie215, 4-(6beta-hydroxy-17-oxoandrostane-3-yl) butyric acid] | – | – | – | > 100 | – | – | – | 459 ± 80.3 | 437 ± 74.1 | Kd (SERCA2a; [12]): 530 ± 47.9 nM
7 | C[C@]12CC[C@H](CCC3CCNCC3)CC1[C@@H](O)C[C@@H]1[C@@H]2CC[C@]2(C)C(=O)CC[C@@H]12 (stereo partly drawn) [CVie212, 3beta-[2-(piperidin-4-yl)ethyl]-6alpha-hydroxyandrostane-17-one] | 409 ± 121 | 406 ± 82.9 | – | 3.5 | −20.2%* | – | −19.6%* | – | – | –
8 | C[C@]12CC/C(=N/OCCN)C[C@@H]1C(=O)C[C@@H]1[C@@H]2CC[C@]2(C)C(=O)CC[C@@H]12 [Istaroxime, (3Z,5a)-3-[(2-aminoethoxy)imino]androstane-6,17-dione, reference compound] | – | – | – | 0.14 | – | – | – | 464 ± 52.4 | 462 ± 59.1 | Kd (SERCA2a; [12]): 524 ± 57.4 nM; LD50 at 24 h ([4]; iv): 29 to 32 mg/kg; LD50 at 24 h ([4]; oral, os): 200 mg/kg

— patent US12503484B2, “Androstane derivatives with activity as pure or predominantly pure stimulators of SERCA2a for the treatment of heart failure” (Seismic Pharmaceuticals, priority 2019, dated 2025)
